Measured values from patent publication US10458996B1, “Methods for determining clinical response to TNF-alpha and/or JAK inhibitors in subjects with inflammatory diseases” (Beth Israel Deaconess Medical Center, Inc., priority 2016, dated 2019).

Key:
[1] = cited from earlier work
[2] = tested on: biopsy samples from patients with IBD; assay: Cytokine profiles of patient biopsy cultures in response to treatment with various agents (Example 2); assay type: cell-based, human
Procedure: (§1) From each patient, intestinal mucosal biopsies were minced into several pieces and distributed in 8 wells of a 96-well plate in 250 μl of Dulbecco's Modified Eagle Medium (DMEM) supplemented with 10% FBS and antibiotic-antimycotic (Life Technologies, CA). Half of the cultures were treated with infliximab (REMICADE®; 0.5 mg/ml; Janssen Biotech, Inc, NJ) and the plate was incubated at 37° C. in a humidified chamber of 95% O2/5% CO2 for 18 hours. Culture supernatants were collected, filtered and stored at −80° C. […] Signal detection and analysis was performed by MAGPIX® (Luminex Corporation, TX).
[…] with 0.5 mg/ml infliximab (an anti-TNFα antibody; therapeutic agent), 100 μM tofacitinib (a Janus kinase (JAK) inhibitor) and an experimental drug (at 10 μM concentration) in accordance with the protocol described above. Following treatment, biopsy samples were obtained and analyzed for cytokine profiles using […].
Additional similar experiments were conducted for different patients using the same or different therapeutic agents, and the results are shown in FIG. 5D-5H.

[3] = tested on: intestinal mucosal explants from patients with IBD; assay: Ex vivo infliximab treatment of intestinal mucosal explant cultures, cytokines in supernatant by multiplex ELISA; assay type: cell-based, human; details: for GM-CSF inhibition by ex vivo infliximab treatment, % patients / GM-CSF inhibition by ex vivo infliximab treatment, N patients / IFNγ inhibition by ex vivo infliximab treatment, % patients / IFNγ inhibition by ex vivo infliximab treatment, N patients / IL-1β inhibition by ex vivo infliximab treatment, % patients / IL-1β inhibition by ex vivo infliximab treatment, N patients / IL-2 inhibition by ex vivo infliximab treatment, % patients / IL-2 inhibition by ex vivo infliximab treatment, N patients / IL-4 inhibition by ex vivo infliximab treatment, % patients / IL-4 inhibition by ex vivo infliximab treatment, N patients / IL-5 inhibition by ex vivo infliximab treatment, N patients / IL-6 inhibition by ex vivo infliximab treatment, % patients / IL-6 inhibition by ex vivo infliximab treatment, N patients / IL-7 inhibition by ex vivo infliximab treatment, % patients / IL-7 inhibition by ex vivo infliximab treatment, N patients / IL-8 inhibition by ex vivo infliximab treatment, % patients / IL-8 inhibition by ex vivo infliximab treatment, N patients / IL-10 inhibition by ex vivo infliximab treatment, % patients / IL-10 inhibition by ex vivo infliximab treatment, N patients / IL-12p40 inhibition by ex vivo infliximab treatment, N patients / IL-12p70 inhibition by ex vivo infliximab treatment, % patients / IL-12p70 inhibition by ex vivo infliximab treatment, N patients / IL-13 inhibition by ex vivo infliximab treatment, N patients / IL-17A inhibition by ex vivo infliximab treatment, N patients / MCP-1 inhibition by ex vivo infliximab treatment, % patients / MCP-1 inhibition by ex vivo infliximab treatment, N patients / IL-5 inhibition by ex vivo infliximab treatment, % patients / IL-12p40 inhibition by ex vivo infliximab treatment, % patients / IL-13 inhibition by ex vivo infliximab treatment, % patients / IL-17A inhibition by ex vivo infliximab treatment, % patients: infliximab 0.5 mg/ml; for number of cytokines down-regulated in the ex vivo assay: mean±SEM; for ex vivo response rate / ex vivo response rate (patients): responder = down-regulation of >2 cytokines
Procedure: During a hospital visit for an endoscopic procedure that was part of their standard care, patients were asked by the study coordinator whether they were willing to participate in this research study and sign the informed consent approved by the Institution's Committee on Clinical Investigations. From each patient, four extra punch biopsies were taken from the macroscopically most diseased areas of the inflamed intestinal mucosa, put on ice and transferred to the lab within 30 minutes of their harvesting.
as §1
Within each patient, differences in cytokine release between control and infliximab-treated cultures (n=4 per group) were assessed by the Mann-Whitney test. Cytokine changes in patients with CD (N=29) or UC (N=16) were expressed as mean±SEM and evaluated by unpaired t-test followed by Bonferroni correction for multiple comparisons. In rate or percentage comparisons a chi-square test was applied. The non-parametric Mann-Whitney test was chosen for the rest of two-group analyses. The STATView 2.0 software (SAS Institute) was used for all tests with the exception of the Receiver Operating Characteristic (ROC) analysis for which STATA13 was used.
The impact of anti-TNFα (infliximab) treatment was investigated in vitro using mucosal biopsy cultures derived from the most inflamed areas of the terminal ileum or colon of a total of 45 patients with IBD, 64% with CD and 36% with UC. At the time the biopsies were taken, 32 patients (71%) were receiving medications for their IBD and 16 of them were under an anti-TNFα regimen. The assay read-out consisted of a panel of 15 cytokines, chemokines and inflammatory mediators, and its design was based on previously reported biomarkers for CD and UC, on biomarkers that correlated with response to anti-TNFα treatment and on plausible TNF-alpha related biological mechanisms (Tracey et al., Rismo et al., Iskandar et al., Transl Res 159:313-325, 2012; Umehara et al., Hepatogastroenterology 53:879-882, 2006). For each patient and each cytokine, data were generated for the two conditions (plus/minus infliximab) using the median of 4 independent cultures.

[4] = tested on: patients with moderate-to-severe CD; details: week 24 of intervention; cited from earlier work
patients with CD and UC = details: cited from earlier work
patients with IBD = assay: Clinical response to anti-TNFα therapy in study patients (review of hospital records); assay type: in vivo, human
Procedure: Upon study completion, a total of 28 patients ([…]) with IBD, 82% with CD, had received anti-TNFα therapy. Specifically, 18 patients were treated with infliximab, 8 patients with adalimumab, 1 patient with golimumab and 1 patient with cetrolizumab pegol. The study participants' hospital electronic records were reviewed by physicians blinded to the results of the ex vivo testing and clinical responses to treatment with anti-TNFα were assessed.
Patients belonging to cohort 1 (N=6) came into the study as anti-TFNalpha naïve and had the shorter follow-up.
(a) need for hospitalization or surgical intervention for IBD-related problems (N=4);
(b) dose or frequency escalation of anti-TNFα treatment or switching to another anti-TNFα regimen (N=4);
(c) adding corticosteroids or an immunomodulator to the therapeutic scheme (N=3);
(d) treatment with emerging IBD drugs such as vedolizumab, tofacitinib, or ustekinumab (N=6).

patients with UC = details: cited from earlier work
[5] = Clinical Response No (n = 17), 18 hours
[6] = Clinical Response No (n = 17), some values below detection limit or missing, 18 hours
[7] = Clinical Response Yes (n = 11), 18 hours
[8] = Clinical Response Yes (n = 11), some values below detection limit or missing, 18 hours
[9] = Mann-Whitney within each patient, 0.5 mg/ml, 18 hours
[10] = cohort 1, anti-TNFα naïve IBD patients
[11] = cohort 2, anti-TNFα exposed patients

## infliximab
[1]; 483 patients with CD during maintenance therapy
  patients with undetectable infliximab serum levels: 23%
[1]; metanalysis, 95% CI:2-4.9
  risk to loose response in the presence of ADA: 3.2 fold
[1]; of the CD patients with undetectable infliximab serum levels
  patients positive for anti-drug antibodies (ADA): 72%
[1]; secondary loss of response
  patients developing anti-drug antibodies (ADA): 10%
[2]; 0.5 mg/ml, cytokine responder group compared to non-responder group (FIG. 5A)
  biomarkers with reductions in level achieving statistical significance: IL-12p40, IL-12p70, IL-13, IL-17A, IL-2, IL-4, IL-5, and IL-7
[2]; 0.5 mg/ml, responder and non-responder groups (FIG. 5A)
  TNFα levels: significantly attenuated in both groups
[2]; patient ID 13-284 (FIG. 5D)
  ex vivo response of patient: ex vivo responder
[2]; patient ID 13-284 (FIG. 5D), in addition to the direct target TNFα
  changes in cytokine profile: three cytokine expression down-regulation
[3]; [5]
  GM-CSF inhibition by ex vivo infliximab treatment, % patients: 5.9%
  GM-CSF inhibition by ex vivo infliximab treatment, N patients: 1
  IFNγ inhibition by ex vivo infliximab treatment, % patients: 23.5%
  IFNγ inhibition by ex vivo infliximab treatment, N patients: 4
  IL-1β inhibition by ex vivo infliximab treatment, % patients: 11.8%
  IL-1β inhibition by ex vivo infliximab treatment, N patients: 2
  IL-2 inhibition by ex vivo infliximab treatment, % patients: 11.8%
  IL-2 inhibition by ex vivo infliximab treatment, N patients: 2
  IL-4 inhibition by ex vivo infliximab treatment, % patients: 5.9%
  IL-4 inhibition by ex vivo infliximab treatment, N patients: 1
  IL-5 inhibition by ex vivo infliximab treatment, N patients: 1
  IL-6 inhibition by ex vivo infliximab treatment, % patients: 5.9%
  IL-6 inhibition by ex vivo infliximab treatment, N patients: 1
  IL-7 inhibition by ex vivo infliximab treatment, % patients: 0.0%
  IL-7 inhibition by ex vivo infliximab treatment, N patients: 0
  IL-8 inhibition by ex vivo infliximab treatment, % patients: 5.9%
  IL-8 inhibition by ex vivo infliximab treatment, N patients: 1
  IL-10 inhibition by ex vivo infliximab treatment, % patients: 11.8%
  IL-10 inhibition by ex vivo infliximab treatment, N patients: 2
  IL-12p40 inhibition by ex vivo infliximab treatment, N patients: 3
  IL-12p70 inhibition by ex vivo infliximab treatment, % patients: 17.6%
  IL-12p70 inhibition by ex vivo infliximab treatment, N patients: 3
  IL-13 inhibition by ex vivo infliximab treatment, N patients: 0
  IL-17A inhibition by ex vivo infliximab treatment, N patients: 0
  MCP-1 inhibition by ex vivo infliximab treatment, % patients: 5.9%
  MCP-1 inhibition by ex vivo infliximab treatment, N patients: 1
[3]; [6]
  IL-5 inhibition by ex vivo infliximab treatment, % patients: 7.7%
  IL-12p40 inhibition by ex vivo infliximab treatment, % patients: 20.0^∧ %
  IL-13 inhibition by ex vivo infliximab treatment, % patients: 0.0^∧ %
  IL-17A inhibition by ex vivo infliximab treatment, % patients: 0.0^∧ %
[3]; [7]
  GM-CSF inhibition by ex vivo infliximab treatment, % patients: 9.1%
  GM-CSF inhibition by ex vivo infliximab treatment, N patients: 1
  IFNγ inhibition by ex vivo infliximab treatment, % patients: 45.5%
  IFNγ inhibition by ex vivo infliximab treatment, N patients: 5
  IL-1β inhibition by ex vivo infliximab treatment, % patients: 45.5%
  IL-1β inhibition by ex vivo infliximab treatment, N patients: 5
  IL-2 inhibition by ex vivo infliximab treatment, % patients: 45.5%
  IL-2 inhibition by ex vivo infliximab treatment, N patients: 5
  IL-4 inhibition by ex vivo infliximab treatment, % patients: 63.6%
  IL-4 inhibition by ex vivo infliximab treatment, N patients: 7
  IL-5 inhibition by ex vivo infliximab treatment, % patients: 81.8%
  IL-5 inhibition by ex vivo infliximab treatment, N patients: 9
  IL-6 inhibition by ex vivo infliximab treatment, % patients: 0.0%
  IL-6 inhibition by ex vivo infliximab treatment, N patients: 0
  IL-7 inhibition by ex vivo infliximab treatment, N patients: 8
  IL-8 inhibition by ex vivo infliximab treatment, % patients: 0.0%
  IL-8 inhibition by ex vivo infliximab treatment, N patients: 0
  IL-10 inhibition by ex vivo infliximab treatment, % patients: 18.2%
  IL-10 inhibition by ex vivo infliximab treatment, N patients: 2
  IL-12p40 inhibition by ex vivo infliximab treatment, % patients: 45.5%
  IL-12p40 inhibition by ex vivo infliximab treatment, N patients: 5
  IL-12p70 inhibition by ex vivo infliximab treatment, % patients: 27.3%
  IL-12p70 inhibition by ex vivo infliximab treatment, N patients: 3
  IL-13 inhibition by ex vivo infliximab treatment, N patients: 7
  IL-17A inhibition by ex vivo infliximab treatment, % patients: 72.7%
  IL-17A inhibition by ex vivo infliximab treatment, N patients: 8
  MCP-1 inhibition by ex vivo infliximab treatment, % patients: 9.1%
  MCP-1 inhibition by ex vivo infliximab treatment, N patients: 1
[3]; [8]
  IL-7 inhibition by ex vivo infliximab treatment, % patients: 88.8%
  IL-13 inhibition by ex vivo infliximab treatment, % patients: 70.0%
[3]; [9]
  number of cytokines per patient, besides TNFα, significantly inhibited ex vivo, maximum: 12
  number of cytokines per patient, besides TNFα, significantly inhibited ex vivo, median: 2
  number of cytokines per patient, besides TNFα, significantly inhibited ex vivo, minimum: 0
[3]; all patients tested, p<0.0001, 0.5 mg/ml, 18 hours
  Changes in TNFα levels in culture supernatant: robustly down-regulated
[3]; clinical non-responders to anti-TNFα therapy
  number of cytokines down-regulated in the ex vivo assay: 1.29±0.63
[3]; clinical responders to anti-TNFα therapy
  number of cytokines down-regulated in the ex vivo assay: 6.0±1.02
[3]; clinical responders versus non-responders to anti-TNFα therapy
  ex vivo inhibition of IL-17A, IL-7, IL-5 and IL-4/IL-13: almost exclusively observed in the clinical responders
[3]; [10]
  ex vivo response rate: 45.5%
  ex vivo response rate (patients): 10/23
[3]; [11]
  ex vivo response rate: 43.5%
  ex vivo response rate (patients): 10/22
[3]; group means, CD and UC patients, 0.5 mg/ml, 18 hours
  magnitude of infliximab-mediated inhibition of the rest of cytokines (other than TNFα): < 30%
[3]; patients with CD (N=29), 0.5 mg/ml, 18 hours
  cytokines whose inhibition reached statistical significance: IL-2 (p<0.001), IL-12p40 (p<0.05) and IL-5 (p<0.05)
[3]; patients with UC (N=16), 0.5 mg/ml, 18 hours
  cytokines whose inhibition reached statistical significance: IL-1β (p<0.05) and IL-7 (p<0.05)
[4]
  Mucosal healing rates: 30.1%
Patients with CD and UC; IBD patients
  sustained response rates beyond week 30: 30-40%
Patients with CD and UC; randomized clinical trials of CD and UC
  Primary response rates to induction therapy: up to 60%
Patients with IBD; patients positive in the ex vivo treatment (ex vivo responders, 10/12)
  clinical response rate: 83%
Patients with IBD; patients with negative ex vivo results (ex vivo non-responders, 1/16)
  clinical response rate: 6%
Patients with UC; 10 mg/kg, week 8
  clinical response rates during induction: 61.5%
Patients with UC; week 53
  clinical response rates, maintenance therapy: 19.8%

## vedolizumab
[2]; patient ID 13-562 (FIG. 5F)
  changes in cytokine profile: only one cytokine expression down-regulation and four cytokine expression up-regulation
  ex vivo response of patient: ex vivo non-responder
